{"source": "patent US20050100510A1", "about": "“Methods for using gadolinium as a contrast media” (priority 2003, published 2005)", "key": {"[1]": {"test": "First set of test cases: gadolinium lumbar discography with fluoroscopy and CT", "assay_type": "in vivo, human", "details": "for visibility of contrast on computer axial tomography: approximately one-hundred-and-sixty minutes after injection, case 1-1", "description": "A first set of test cases was conducted wherein it was identified that gadolinium would adequately opacify, thereby allowing adequate fluoroscopic imaging for of soft tissue portions of the spinal area and, for example, for lumbar discography procedures. […] During the first set of test cases, a solution of 469.01 mg/ml gadolinium (Magnevist—Berlex Laboratories, Wayne, N.J.) with 25 mg/ml Cefazolin (Apothecon, Princeton, N.J.) for antibacterial prophylaxis was injected into each disc using a standard three milliliter syringe. The following is a brief synopsis of six tests from the first set of tests:\nThe volume of contrast injected at pain onset, the end point (nucleography), the pain intensity measured with the numerical analog scale, and the concordant and/or discordant pain response were recorded for each spinal disc to be injected with gadolinium. Each spinal disc then was visualized with c-arm fluoroscopy to create a visualization of the nucleogram and provocation of the spinal discs."}, "[2]": {"test": "Third set of cases: spinal interventional procedures with fluoroscopic guidance, adverse reactions", "assay_type": "in vivo, human", "description": "In a third set of cases, two-hundred-and-thirty patients underwent spinal interventional procedures with fluoroscopic guidance. Two-hundred-and-eleven patients were subsequently evaluated for any adverse reaction in the period immediately after the procedure and up to several weeks after the procedure. Seventy-four of the patients were male and one-hundred-and-thirty-seven were female. The age range of the patient population varied from sixteen years old to eighty-one year old, and the average age of the patient population was 48.7 years old. The only prophylactic medications that were administered before the procedure were antibiotics for patients undergoing discography, patients with significant cardiac disease, or patients with surgical implants. The number and type of procedures along with the number of adverse reactions for each procedure type are summarized in below in Table 1: […]"}, "[3]": {"test": "Second set of test cases: fluoroscopically guided spinal injections with gadolinium", "assay_type": "in vivo, human", "description": "During the second of set of tests, gadolinium was injected into a variety of target portions of the spinal area to create a contrast between the target portion and surrounding tissue. As described below, these contrasts were adequately sensed using fluoroscopy to create visual representations of the contrast between the target portion and the surrounding tissue. The second set of tests utilized a preferred embodiment of the method of using gadolinium as a contrast substance, where a visualization was created to use as a guide for the accurate injection of a diagnostic or therapeutic substance into the target portion of the spinal area. In this respect, visualization of the contrast helps to localize placement of a needle for an injection of a substance avoiding the harm that the injection might cause to surrounding tissue.\nThe second set of tests comprised chart review, performance of spinal injections with gadolinium under fluoroscopic guidance, and post procedure follow-up by phone at two and twelve weeks to assess any adverse reactions to the gadolinium. […] The tests utilized a contrast substance that was 469.01 mg/ml gadolinium (Magnevist—from Berlex Laboratories, Wayne, N.J.). […]"}, "[4]": {"details": "intravenous administration; cited from earlier work"}, "[5]": {"details": "cited from earlier work"}, "[6]": {"details": "repeated exposure in sensitive individuals"}}, "note": "“Also recorded” adds a separate entry of the source. Where two headings read alike, the source gives them in different places."}
{"smiles": "CNC[C@H](O)[C@@H](O)[C@H](O)[C@H](O)CO.CNC[C@H](O)[C@@H](O)[C@H](O)[C@H](O)CO.O=C([O-])CN(CCN(CC(=O)[O-])CC(=O)O)CCN(CC(=O)[O-])CC(=O)O.[Gd+3]", "note": "[gadolinium, gadopentate dimeglumine]", "values": [{"measurement": "visibility in disc material on fluoroscopic image", "setting": "[1]; after injection into spinal discs", "value": "fluoroscopically visible; also recorded: clearly visible"}, {"measurement": "visibility of contrast on computer axial tomography", "setting": "[1]; L3-L4 spinal disc", "value": "visible"}, {"measurement": "visibility of contrast on computer axial tomography", "setting": "[1]; L4-L5 disrupted spinal disc", "value": "less intensive, but still visible"}, {"measurement": "complications during or after the procedure", "setting": "[1]; intradiscal, 469.01 mg/ml gadolinium with 25 mg/ml Cefazolin, single patient cases", "value": "No complications"}, {"measurement": "visibility on CT scan", "setting": "[1]; more than one-hundred-and-twenty minutes after injection, discs with and without annular disruption", "value": "still visible"}, {"measurement": "visibility on computer axial tomography", "setting": "[1]; thirty minutes after completion of the procedure, case 1-2", "value": "showed gadolinium in each disc"}, {"measurement": "Number of Adverse Reactions", "setting": "[2]; Caudal epidural, 16 procedures", "value": 0}, {"measurement": "Number of Adverse Reactions", "setting": "[2]; Cervical SNRB, 14 procedures", "value": 1}, {"measurement": "Number of Adverse Reactions", "setting": "[2]; Cervical interlaminar, 6 procedures", "value": 1}, {"measurement": "Number of Adverse Reactions", "setting": "[2]; Lumbar SNRB, 55 procedures", "value": 4}, {"measurement": "Number of Adverse Reactions", "setting": "[2]; Lumbar discography, 11 procedures", "value": 0}, {"measurement": "Number of Adverse Reactions", "setting": "[2]; Lumbar epidurolysis, 4 procedures", "value": 0}, {"measurement": "Number of Adverse Reactions", "setting": "[2]; Lumbar interlaminar, 37 procedures", "value": 1}, {"measurement": "Number of Adverse Reactions", "setting": "[2]; Lumbar intraarticular facet, 3 procedures", "value": 0}, {"measurement": "Number of Adverse Reactions", "setting": "[2]; Lumbar sympathetic, 4 procedures", "value": 0}, {"measurement": "Number of Adverse Reactions", "setting": "[2]; Other miscellaneous, 13 procedures", "value": 1}, {"measurement": "Number of Adverse Reactions", "setting": "[2]; Sacroiliac joint, 59 procedures", "value": 2}, {"measurement": "quality of visualizations from gadolinium-induced contrasts", "setting": "[2]; all procedures, fluoroscopic devices", "value": "adequate visualizations"}, {"measurement": "serious adverse reactions", "setting": "[2]; of the five allergic-type reactions, likely due to contributing factors", "value": "one"}, {"measurement": "adverse reactions attributable to allergic-type reactions", "setting": "[2]; out of the ten adverse reactions", "value": "five"}, {"measurement": "side effects, complications or adverse reactions", "setting": "[3]; 469.01 mg/ml gadolinium (Magnevist), follow-up at two and twelve weeks", "value": "no side effects or complications; also recorded: None of the individuals in the case series of the present invention had any adverse reactions"}, {"measurement": "visibility under fluoroscopy", "setting": "[3]; soft tissue of the spinal area", "value": "visible under fluoroscopy"}, {"measurement": "adverse reaction rate", "setting": "[4]", "value": 0.06, "unit": "%"}]}
{"smiles": "CC(=O)N(CC(O)CO)c1c(I)c(C(=O)NCC(O)CO)c(I)c(C(=O)NCC(O)CO)c1I", "note": "(stereo not drawn) [iohexol]", "values": [{"measurement": "anaphylaxis occurrence", "setting": "[5]; first dose administrations", "value": "one percent and two percent"}, {"measurement": "anaphylaxis occurrence", "setting": "[5]; [6]", "value": "seventeen percent and thirty-five percent"}]}
{"smiles": "C[C@H](O)C(=O)Nc1c(I)c(C(=O)NC(CO)CO)c(I)c(C(=O)NC(CO)CO)c1I", "note": "[iopamidol]", "values": [{"measurement": "anaphylaxis occurrence", "setting": "[5]; first dose administrations", "value": "one percent and two percent"}, {"measurement": "anaphylaxis occurrence", "setting": "[5]; [6]", "value": "seventeen percent and thirty-five percent"}]}
